We go through 6 substances from patent US7488792B2, “Collagen-binding molecules that selectively home to tumor vasculature and methods of using same” (Burnham Institute for Medical Research, priority 2002, dated 2009).

Ends that are not written are not given here. * marks the point of attachment. FITC = O=C1OC2(c3ccc(O)cc3Oc3cc(O)ccc32)c2ccc(NC(=S)*)cc21

The target in experiment [1] is T1, collagen IV fragment of clone #3 (SEQ ID NO: 2) (Mus musculus, UniProt P08122).
T1 construct: made in house; host or cells: T7 phage (modified T7Select1-2b) amplified in BLT 5615 bacteria; cDNA from mouse 4T1 cells
T1 sequence (P08122 with tags, fused parts or gaps): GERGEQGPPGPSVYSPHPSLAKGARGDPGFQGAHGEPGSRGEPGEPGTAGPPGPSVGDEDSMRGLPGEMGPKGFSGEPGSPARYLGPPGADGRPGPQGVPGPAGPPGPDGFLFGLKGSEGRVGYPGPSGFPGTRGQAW
As to the kind of experiment: Binding of phage displaying clone #3 collagen IV fragment to immobilized CREKA peptide and its competition. Further details: effect of fibronectin on phage binding (clone #3 fragment / immobilized CREKA): dose or concentration left out as unconfirmed. How it is done: Expression cloning was performed essentially as described in Essler and Ruoslahti, Proc. Natl. Acad. Sci., USA 99:2252-2257 (2002). CREKA (SEQ ID NO: 1) peptide was synthesized on a Symphony synthesizer (Rainin Instruments; Emeryville, Calif.) at The Burnham Institute peptide facility, and purified by high performance liquid chromatography. […] Biotin-labeled peptide (2 mg/ml) was immobilized on a streptavidin-coated 96 well Reacti-Bind® polystyrene strip plate (Pierce; Rockford, Ill.) by coating overnight at room temperature with 100 μl of 2 mg/ml biotin-CREKA (SEQ ID NO: 1) in PBS. The wells were subsequently treated three times with 200 μl SuperBlock® blocking buffer (Pierce).
Binding assays were performed as follows. […]
For competitions with free CREKA (SEQ ID NO: 1) peptide, phage displaying the clone #3 collagen IV fragment (SEQ ID NO: 2; 1×10^7 pfu) were applied to CREKA (SEQ ID NO: 1)-coated surfaces in 96-well ELISA plates prepared as described above, and incubated for one […] in the presence of 0.01 mg, 0.05 mg, or 0.1 mg soluble CREKA (SEQ ID NO: 1) peptide in 100 μl PBS. […] After 20 washes with 100 μl PBS, phage particles were recovered by infecting BL21 bacteria, and the number of attached phage determined. Phage output was determined as a percentage of phage recovered from wells not treated with soluble peptide.

Experiment [2] concerns vasculature of MDA-MB-435 human breast cancer cell xenografts. As to the kind of experiment: In vivo homing of phage to MDA-MB-435 xenografts in nude mice (phage recovery, pfu). Further details: species or system mouse. Particulars: co-injection. The method, then: Phage preparations (1×10^9 plaque forming units (pfu)) of CREKA (SEQ ID NO: 1)-displaying phage were injected into tumor-bearing mice and subsequently recovered from breast tumors and a variety of normal tissues. […] The CREKA (SEQ ID NO: 1) phage also homed to the vasculature of MDA-MB-435 human breast cancer cell xenografts grown in the mammary fat pad of nude mice with a 20-fold specificity over non-recombinant phage as shown in FIG. 1B.
In vivo phage display screens were performed with 65 to 75 day old transgenic MMTV PyMT mice obtained from Dr. William Muller. MDA-MB-435 tumors were generated as described in Laakkonen et al., Nat. Med. 7:751-755 (2002). Briefly, 10^6 MDA-MB-435 cells in 100 μl phosphate buffered saline (PBS) were injected into the mammary fat pad of nude mice. Tumors were grown for five weeks before the animals were used in vivo studies. In vivo phage screening was performed as described in Porkka et al., Proc. Natl. Acad. Sci., USA 99:7444-7449 (2002), with a few modifications. Briefly, mice were anesthetized with avertin and then injected intravenously with 10^9 pfu of the CX7C library. Mice were perfused through the heart with 10 ml of PBS seven minutes after the injection. […] Cell-adherent phage particles were recovered by infecting BL21 bacteria (Novagen), and the number of phage quantified by plaque assay.

The next experiment concerns mitochondrial membranes. Particulars: concentration of 10 μM; cited from earlier work.
The target in experiment [3] is T2, collagen IV in MMTV-PyMT tumors (Mus musculus, UniProt P02463+P08122).
T2 construct: from tissue; host or cells: breast tumors of MMTV PyMT mice
Nature of the experiment: Co-localization of injected FITC peptide with collagen IV immunostaining in tumors. Format: in vivo. Particulars: 100 μg injected into tail vein, 15 minutes; connective tissue surrounding tumor masses. How it is done: Localization of collagen IV was compared to the localization of CREKA (SEQ ID NO: 1) peptide in breast tumors.
Immunostaining was performed after injection of 100 μg FITC-CREKA (SEQ ID NO: 1) into the tail vein of MMTV PyMT mice. After 15 minutes, tumors were dissected, fixed, stained for collagen IV and counter-stained with DAPI essentially as follows. Collagen IV was detected by immunofluorescence as described in Engvall et al., supra, 1982, with the following modifications. Briefly, mouse tissues were fixed with 3.7% paraformaldehyde for two hours, washed with PBS, and incubated in glycine (0.01%, pH 7.4) for 12 hours to quench autofluorescence of the samples. Specimens were then treated with increasing concentrations of sucrose (12%, 15%, 18%), embedded in Tissue-Tek© (Miles Inc.), frozen, and cut into 5 μm sections. After an overnight incubation with rabbit antiserum to collagen IV (diluted 1:40 in PBS) at 4° C. (Engvall et al., supra, 1982), the sections were washed with PBS and incubated with rhodamine-labeled goat anti-rabbit antibody (DAKO) at a dilution of 1:30 for 30 minutes. After washing, the sections were mounted in 90% glycerol.

Another experiment deals with MMTV PyMT tumors. Nature of the experiment: Tissue localization of fluorescein- and rhodamine-labeled peptide after intravenous injection. The conditions noted are these: for detection of labeled peptide in MMTV PyMT tumors / detection of labeled peptide in normal tissues: 15 minutes after intravenous injection; for detection of labeled peptide in normal tissues: brain or liver. Format: in vivo, mouse. The method, then: Similarly, fluorescein (FITC) and rhodamine labeled CREKA (SEQ ID NO: 1) peptides also were detected in MMTV PyMT tumors 15 minutes after intravenous injection but were not observed in normal tissues such as the brain or liver (compare FIG. 3A with FIGS. 3B and 3C). […] As expected, control organs such as the heart, injected with rhodamine-labeled CREKA (SEQ ID NO: 1) and FITC-tomato-lectin, which stains blood vessels, were negative for CREKA (SEQ ID NO: 1) peptide staining (see FIG. 3F).
Peptide synthesis and labeling of peptides with fluorescein and rhodamine was carried out as described in Wender et al., Proc. Natl. Acad. Sci., USA 97:13003-13008 (2000), and Oku et al., supra, 2002, and detected essentially as follows. A 1 mg/ml solution of fluorescein-labeled CREKA (SEQ ID NO: 1) peptide in PBS was injected into the tail vein of MMTV PyMT mice. After 15 minutes or two hours of circulation, mice were perfused through the heart with 10 ml PBS, and the indicated organs harvested. Tissues were dissected, fixed with 3.7% paraformaldehyde for two hours, washed with PBS, and soaked in glycine (0.01%, pH 7.4) for 12 hours. Specimens were then treated with a sucrose gradient (12%, 15%, 18%), embedded in Tissue-Tek© (Miles Inc.; Elkhardt, Ind.) and frozen. Subsequently, 5 μm sections were prepared for fluorescence microscopy, and 50 μm sections were prepared for confocal microscopy. To detect blood vessels, 100 μl of 1 mg/ml solution of fluorescein-labeled tomato lectin (Vector Labs; Burlingame, Calif.) was injected into mice in PBS.

In the next experiment the test system is tumor. As to the kind of experiment: In vivo tumor homing of CREKA phage with co-injection of gelatin.
Where [4] appears, read: after two hours, localizing outside the blood vessels.

T2 sequence (P02463 173-1669): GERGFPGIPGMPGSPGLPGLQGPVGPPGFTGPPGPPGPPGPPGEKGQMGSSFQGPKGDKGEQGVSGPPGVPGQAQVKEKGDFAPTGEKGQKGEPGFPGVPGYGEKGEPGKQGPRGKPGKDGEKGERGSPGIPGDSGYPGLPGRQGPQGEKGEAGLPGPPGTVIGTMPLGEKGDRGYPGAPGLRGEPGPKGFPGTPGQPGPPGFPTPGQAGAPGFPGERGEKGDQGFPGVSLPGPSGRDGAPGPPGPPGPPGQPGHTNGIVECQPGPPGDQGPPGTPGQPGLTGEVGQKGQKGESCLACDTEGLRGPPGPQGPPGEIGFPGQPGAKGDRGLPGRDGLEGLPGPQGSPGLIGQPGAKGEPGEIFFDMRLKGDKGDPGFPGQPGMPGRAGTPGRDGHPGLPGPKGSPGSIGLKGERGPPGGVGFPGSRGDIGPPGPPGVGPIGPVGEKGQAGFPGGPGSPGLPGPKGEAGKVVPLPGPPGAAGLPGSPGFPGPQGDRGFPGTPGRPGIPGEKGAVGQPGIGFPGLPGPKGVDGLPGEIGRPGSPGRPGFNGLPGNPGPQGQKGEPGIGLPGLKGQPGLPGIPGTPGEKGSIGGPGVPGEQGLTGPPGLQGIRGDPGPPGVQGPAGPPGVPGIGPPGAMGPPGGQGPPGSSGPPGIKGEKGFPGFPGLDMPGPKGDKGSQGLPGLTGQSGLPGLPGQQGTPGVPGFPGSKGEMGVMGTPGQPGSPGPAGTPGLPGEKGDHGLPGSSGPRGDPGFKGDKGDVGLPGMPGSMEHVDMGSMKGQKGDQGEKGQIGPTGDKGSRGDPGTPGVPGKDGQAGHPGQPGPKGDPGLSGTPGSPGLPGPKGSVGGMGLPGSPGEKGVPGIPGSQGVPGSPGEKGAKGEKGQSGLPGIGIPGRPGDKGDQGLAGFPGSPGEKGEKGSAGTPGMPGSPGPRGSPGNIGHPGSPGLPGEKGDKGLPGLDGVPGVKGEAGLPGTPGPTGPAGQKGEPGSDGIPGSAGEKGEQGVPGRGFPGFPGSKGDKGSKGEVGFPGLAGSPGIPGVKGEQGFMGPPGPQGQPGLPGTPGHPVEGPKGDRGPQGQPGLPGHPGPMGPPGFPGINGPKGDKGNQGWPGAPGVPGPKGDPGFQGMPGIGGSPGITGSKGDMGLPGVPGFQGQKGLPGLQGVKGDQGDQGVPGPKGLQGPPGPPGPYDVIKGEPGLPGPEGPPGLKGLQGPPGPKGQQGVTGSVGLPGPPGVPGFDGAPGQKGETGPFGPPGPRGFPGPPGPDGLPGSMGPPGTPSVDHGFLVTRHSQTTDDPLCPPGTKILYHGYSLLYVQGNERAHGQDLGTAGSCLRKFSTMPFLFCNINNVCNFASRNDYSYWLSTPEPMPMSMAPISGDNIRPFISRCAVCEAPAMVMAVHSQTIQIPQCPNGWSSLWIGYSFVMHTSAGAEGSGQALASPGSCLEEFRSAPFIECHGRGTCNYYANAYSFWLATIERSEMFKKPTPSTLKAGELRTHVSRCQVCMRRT
T2 sequence (P08122 184-1707): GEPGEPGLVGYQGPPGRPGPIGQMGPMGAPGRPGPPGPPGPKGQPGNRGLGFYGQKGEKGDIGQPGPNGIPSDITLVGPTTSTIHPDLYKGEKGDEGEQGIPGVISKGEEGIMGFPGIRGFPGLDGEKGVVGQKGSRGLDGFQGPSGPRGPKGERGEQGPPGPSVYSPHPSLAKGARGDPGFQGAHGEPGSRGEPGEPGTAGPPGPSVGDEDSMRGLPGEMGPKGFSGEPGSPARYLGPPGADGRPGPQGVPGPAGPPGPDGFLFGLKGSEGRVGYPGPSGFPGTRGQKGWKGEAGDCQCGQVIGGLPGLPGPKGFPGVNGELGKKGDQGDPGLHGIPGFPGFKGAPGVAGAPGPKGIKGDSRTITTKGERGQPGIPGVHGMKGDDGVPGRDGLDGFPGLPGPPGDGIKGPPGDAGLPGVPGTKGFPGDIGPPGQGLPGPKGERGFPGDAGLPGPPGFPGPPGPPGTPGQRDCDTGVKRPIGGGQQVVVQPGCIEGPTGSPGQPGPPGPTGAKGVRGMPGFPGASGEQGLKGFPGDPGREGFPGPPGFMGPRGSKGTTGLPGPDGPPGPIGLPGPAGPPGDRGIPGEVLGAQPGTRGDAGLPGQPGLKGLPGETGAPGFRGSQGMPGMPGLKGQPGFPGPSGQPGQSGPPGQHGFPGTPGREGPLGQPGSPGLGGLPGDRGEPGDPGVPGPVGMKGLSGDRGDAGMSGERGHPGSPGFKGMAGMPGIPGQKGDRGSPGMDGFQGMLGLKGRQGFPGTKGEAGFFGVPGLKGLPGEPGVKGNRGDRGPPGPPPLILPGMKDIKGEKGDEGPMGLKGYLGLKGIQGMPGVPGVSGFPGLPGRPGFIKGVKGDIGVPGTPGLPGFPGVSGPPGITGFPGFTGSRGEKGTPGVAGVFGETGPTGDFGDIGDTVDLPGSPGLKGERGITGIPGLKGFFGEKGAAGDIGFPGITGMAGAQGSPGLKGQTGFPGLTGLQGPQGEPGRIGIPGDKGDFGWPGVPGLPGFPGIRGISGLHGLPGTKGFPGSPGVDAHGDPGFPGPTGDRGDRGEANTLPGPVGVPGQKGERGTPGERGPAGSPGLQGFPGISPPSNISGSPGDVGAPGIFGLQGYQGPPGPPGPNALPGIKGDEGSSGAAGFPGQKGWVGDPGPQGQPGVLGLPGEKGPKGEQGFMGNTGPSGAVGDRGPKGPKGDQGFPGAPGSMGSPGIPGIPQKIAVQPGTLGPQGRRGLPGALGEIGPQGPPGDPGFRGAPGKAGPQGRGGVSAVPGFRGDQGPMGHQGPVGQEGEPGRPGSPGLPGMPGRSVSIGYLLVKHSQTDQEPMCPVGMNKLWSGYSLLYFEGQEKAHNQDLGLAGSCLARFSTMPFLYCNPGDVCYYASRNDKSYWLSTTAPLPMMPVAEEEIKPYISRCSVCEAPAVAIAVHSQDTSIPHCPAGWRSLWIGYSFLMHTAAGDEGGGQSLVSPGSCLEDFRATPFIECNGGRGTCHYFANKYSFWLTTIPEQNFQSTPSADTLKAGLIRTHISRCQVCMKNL

As for CREKA [CREKA peptide], in experiment [1] (0.01 mg, 0.05 mg or 0.1 mg soluble peptide in 100 μl PBS, FIG. 5A), the “inhibition of clone #3 collagen IV fragment phage binding to immobilized CREKA” value was “inhibited”. Also, the “effect of co-injected free peptide on homing of phage displaying the control peptide” value in experiment [2] is “did not inhibit”. Moreover, in experiment [2] (excess of free peptide, FIG. 1B), the “effect of co-injected free peptide on CREKA-displaying phage recovery from breast cancer tissue” value is “inhibited”.
As for D(KLAKLAK)2, in the experiment on mitochondrial membranes, the mitochondrial swelling result is “marked mitochondrial swelling”.
As for “FITC-CREKA: fluorescein (FITC) labeled CREKA (SEQ ID NO: 1) peptide ({FITC}-CREKA)”, in experiment [3], the “co-localization with collagen IV in tumors” value was “partially co-localized”. Further, the “detection of labeled peptide in MMTV PyMT tumors” value in the experiment on MMTV PyMT tumors is given as “detected”. Moreover, the “distribution of labeled peptide within tumor” value (shortened to “distribution”) was “primarily in the tumor periphery” in the experiment on MMTV PyMT tumors (15 minutes after the injection) and “detected in the entire tumor” with MMTV PyMT tumors (setting [4]). In addition, in the experiment with MMTV PyMT tumors, the “detection of labeled peptide in normal tissues” value was “not observed”.
As to Fibronectin [reference compound], the “effect of fibronectin on phage binding (clone #3 fragment / immobilized CREKA)” value in experiment [1] (fibronectin, FIG. 5B) was “did not significantly reduce”.
As for gelatin, the “effect of co-injection on in vivo tumor homing of CREKA-expressing phage” value in the experiment with tumor is “completely blocked”.
As to “rhodamine-labeled CREKA: rhodamine labeled CREKA (SEQ ID NO: 1) peptide (also: rhodamine label, site not given here)”, in the experiment on MMTV PyMT tumors, the “detection of labeled peptide in MMTV PyMT tumors” value is given as “detected” and the “detection of labeled peptide in normal tissues” value was “not observed”. Also, the “distribution” value in the experiment with MMTV PyMT tumors (15 minutes after the injection) was “primarily in the tumor periphery”. In addition, the “distribution” value in the experiment on MMTV PyMT tumors (setting [4]) is listed as “detected in the entire tumor”. The “CREKA peptide staining in heart” value in the experiment with MMTV PyMT tumors (heart, co-injected with FITC-tomato-lectin, FIG. 3F) is given as “negative”.
